According to the supplement of paper PMC10307832:

How the values were obtained:
Assay in all cases: relative viability (nuclei count vs DMSO), 5 days (fraction); higher = more cells survive
Bleomycin + Decitabine = compound: CC1=C(N=C(N=C1N)[C@H](CC(=O)N)NC[C@@H](C(=O)N)N)C(=O)N[C@@H]([C@H](C2=CN=CN2)OC3C(C(C(C(O3)CO)O)O)OC4C(C(C(C(O4)CO)O)OC(=O)N)O)C(=O)N[C@H](C)[C@H]([C@H](C)C(=O)N[C@@H]([C@@H](C)O)C(=O)NCCC5=NC(=CS5)C6=NC(=CS6)C(=O)NCCC[S+](C)C)O [Bleomycin] + Nc1ncn([C@H]2C[C@H](O)[C@@H](CO)O2)c(=O)n1 [Decitabine] (partner 2 µM); conditions: main component drawn
How it was run: (§1)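 Relative viability is defined as nuclei in treated wells over nuclei in vehicle wells. Duplicate plates were run and medians reported. Lung cancer cell lines in 1536-well plates were dosed by pin tool one day after seeding, with one drug or with a fixed anchor-drug dose plus five library-drug doses (not always all listed) in √10 steps, and nuclei were counted after 5 days.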

Bleomycin + Trametinib = compound: CC1=C(N=C(N=C1N)[C@H](CC(=O)N)NC[C@@H](C(=O)N)N)C(=O)N[C@@H]([C@H](C2=CN=CN2)OC3C(C(C(C(O3)CO)O)O)OC4C(C(C(C(O4)CO)O)OC(=O)N)O)C(=O)N[C@H](C)[C@H]([C@H](C)C(=O)N[C@@H]([C@@H](C)O)C(=O)NCCC5=NC(=CS5)C6=NC(=CS6)C(=O)NCCC[S+](C)C)O [Bleomycin] + CC(=O)Nc1cccc(-n2c(=O)n(C3CC3)c(=O)c3c(Nc4ccc(I)cc4F)n(C)c(=O)c(C)c32)c1 [Trametinib] (partner 0.02 µM); conditions: main component drawn
How it was run: as §1

Bleomycin + Phenformin = compound: CC1=C(N=C(N=C1N)[C@H](CC(=O)N)NC[C@@H](C(=O)N)N)C(=O)N[C@@H]([C@H](C2=CN=CN2)OC3C(C(C(C(O3)CO)O)O)OC4C(C(C(C(O4)CO)O)OC(=O)N)O)C(=O)N[C@H](C)[C@H]([C@H](C)C(=O)N[C@@H]([C@@H](C)O)C(=O)NCCC5=NC(=CS5)C6=NC(=CS6)C(=O)NCCC[S+](C)C)O [Bleomycin] + N=C(N)NC(=N)NCCc1ccccc1 [Phenformin] (partner 250 µM); conditions: main component drawn
How it was run: as §1

Etoposide + Navitoclax = compound: COc1cc([C@@H]2c3cc4c(cc3[C@@H](O[C@@H]3O[C@@H]5CO[C@@H](C)O[C@H]5[C@H](O)[C@H]3O)[C@H]3COC(=O)[C@H]23)OCO4)cc(OC)c1O [Etoposide] + CC1(C)CCC(c2ccc(Cl)cc2)=C(CN2CCN(c3ccc(C(=O)NS(=O)(=O)c4ccc(N[C@H](CCN5CCOCC5)CSc5ccccc5)c(S(=O)(=O)C(F)(F)F)c4)cc3)CC2)C1 [Navitoclax] (partner 0.5 µM)
How it was run: as §1

Cell Line	relative viability (Bleomycin + Decitabine; first compound 0.01 µM)	relative viability (Bleomycin + Decitabine; first compound 0.03162 µM)	relative viability (Bleomycin + Decitabine; first compound 0.1 µM)	relative viability (Bleomycin + Decitabine; first compound 0.3162 µM)	relative viability (Bleomycin + Decitabine; first compound 1 µM)	relative viability (Bleomycin + Trametinib; first compound 0.01 µM)	relative viability (Bleomycin + Trametinib; first compound 0.03162 µM)	relative viability (Bleomycin + Trametinib; first compound 0.1 µM)	relative viability (Bleomycin + Trametinib; first compound 0.3162 µM)	relative viability (Bleomycin + Trametinib; first compound 1 µM)	relative viability (Bleomycin + Phenformin; first compound 0.01 µM)	relative viability (Bleomycin + Phenformin; first compound 0.03162 µM)	relative viability (Bleomycin + Phenformin; first compound 0.1 µM)	relative viability (Bleomycin + Phenformin; first compound 0.3162 µM)	relative viability (Bleomycin + Phenformin; first compound 1 µM)	relative viability (Etoposide + Navitoclax; first compound 0.01 µM)	relative viability (Etoposide + Navitoclax; first compound 0.03162 µM)	relative viability (Etoposide + Navitoclax; first compound 0.1 µM)	relative viability (Etoposide + Navitoclax; first compound 0.3162 µM)	relative viability (Etoposide + Navitoclax; first compound 1 µM)
HARA	0.513	0.534	0.473	0.313	0.335	0.899	0.325	0.448	0.347	0.328	0.432	0.503	0.493	0.361	0.178	1.11	1.16	1.17	0.864	0.337
NCI-H2126	0.626	0.621	0.601	0.567	0.566	0.525	0.583	0.594	0.52	0.508	0.55	0.536	0.559	0.349	0.303	0.893	0.917	0.49	0.769	0.448
NCI-H1437	0.472	0.527	0.518	0.428	0.377	0.475	0.411	0.678	0.439	0.276	0.248	0.283	0.287	0.229	0.212	1.11	1.01	1.01	0.524	0.296
NCI-H1792	0.521	0.649	0.558	0.3	0.252	0.462	0.396	0.356	0.317	0.189	0.316	0.309	0.195	0.197	0.164	0.716	0.59	0.507	0.567	0.394
ChaGo-K-1	0.492	0.506	0.476	0.433	0.364	0.775	0.744	0.704	0.547	0.366	0.383	0.39	0.384	0.297	0.217	1.11	0.956	0.755	0.391	0.274
COR-L23	0.378	0.407	0.287	0.188	0.147	0.432	0.518	0.303	0.133	0.129	0.316	0.292	0.219	0.123	0.123	0.935	1.02	1.07	0.554	0.236
COR-L 105	0.594	0.588	0.519	0.419	0.371	0.459	0.417	0.419	0.369	0.332	0.49	0.394	0.399	0.315	0.35	0.745	0.802	0.79	0.516	0.586
